Results on 31 compounds are retold here after ChEMBL document CHEMBL1201862, “PubChem BioAssay data set” (2004).

SMILES strings stand for the structures. Active and inactive are the calls of the source. Some results are limits rather than exact numbers.

In assay [1] the target is T1, Replicative DNA helicase DnaB (Mycobacterium tuberculosis, UniProt P9WMR3).
T1 sequence (P9WMR3 whole entry): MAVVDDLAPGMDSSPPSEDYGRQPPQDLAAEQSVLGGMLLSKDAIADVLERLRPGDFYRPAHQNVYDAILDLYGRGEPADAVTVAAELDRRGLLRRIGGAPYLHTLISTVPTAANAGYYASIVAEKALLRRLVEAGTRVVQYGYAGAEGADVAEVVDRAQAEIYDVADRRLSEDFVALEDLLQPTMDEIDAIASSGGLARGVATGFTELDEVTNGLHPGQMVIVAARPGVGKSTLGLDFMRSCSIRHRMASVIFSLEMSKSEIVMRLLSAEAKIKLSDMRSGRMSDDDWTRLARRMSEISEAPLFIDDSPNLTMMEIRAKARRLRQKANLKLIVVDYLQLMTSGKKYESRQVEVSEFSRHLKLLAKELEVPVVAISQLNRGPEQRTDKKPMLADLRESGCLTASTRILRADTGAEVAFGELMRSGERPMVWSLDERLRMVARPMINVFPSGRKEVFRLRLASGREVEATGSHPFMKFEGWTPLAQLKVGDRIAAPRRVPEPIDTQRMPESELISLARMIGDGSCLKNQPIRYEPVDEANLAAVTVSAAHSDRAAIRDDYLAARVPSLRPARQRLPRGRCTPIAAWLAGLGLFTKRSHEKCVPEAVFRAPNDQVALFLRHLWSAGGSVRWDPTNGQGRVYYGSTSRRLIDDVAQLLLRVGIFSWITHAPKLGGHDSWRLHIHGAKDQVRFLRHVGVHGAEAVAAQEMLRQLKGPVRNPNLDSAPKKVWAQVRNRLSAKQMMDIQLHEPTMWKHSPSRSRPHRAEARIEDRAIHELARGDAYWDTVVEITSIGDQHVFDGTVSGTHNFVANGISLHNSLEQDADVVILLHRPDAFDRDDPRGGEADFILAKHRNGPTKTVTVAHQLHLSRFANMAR
In words: DnaB intein splicing inhibitors, dose response, biochemical, cell-free fluorescence (AID 449749). Format: functional.

Assay [2] addresses T2, Protein RecA (Mycobacterium tuberculosis, UniProt P9WHJ3).
T2 sequence (P9WHJ3 whole entry): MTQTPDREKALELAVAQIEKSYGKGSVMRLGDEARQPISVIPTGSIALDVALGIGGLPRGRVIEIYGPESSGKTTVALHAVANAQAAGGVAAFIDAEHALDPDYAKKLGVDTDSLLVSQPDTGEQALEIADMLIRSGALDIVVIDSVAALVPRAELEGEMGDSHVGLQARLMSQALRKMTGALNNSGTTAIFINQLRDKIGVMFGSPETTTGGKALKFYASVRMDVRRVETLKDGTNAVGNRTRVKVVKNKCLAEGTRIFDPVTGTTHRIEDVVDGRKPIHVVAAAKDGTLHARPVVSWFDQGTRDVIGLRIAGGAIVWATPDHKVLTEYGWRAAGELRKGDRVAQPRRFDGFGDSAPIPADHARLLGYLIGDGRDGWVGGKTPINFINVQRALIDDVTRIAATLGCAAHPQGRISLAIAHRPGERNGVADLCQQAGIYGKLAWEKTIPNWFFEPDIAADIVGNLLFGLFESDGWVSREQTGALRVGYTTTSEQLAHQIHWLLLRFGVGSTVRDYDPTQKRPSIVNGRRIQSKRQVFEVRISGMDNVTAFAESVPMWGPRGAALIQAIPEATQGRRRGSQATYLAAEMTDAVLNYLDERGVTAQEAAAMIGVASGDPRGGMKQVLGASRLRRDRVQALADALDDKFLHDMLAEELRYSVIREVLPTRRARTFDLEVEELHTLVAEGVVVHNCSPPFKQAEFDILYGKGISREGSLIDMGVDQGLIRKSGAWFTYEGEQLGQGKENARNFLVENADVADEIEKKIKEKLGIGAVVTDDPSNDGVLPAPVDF
In words: Fluorescence Cell-Free Homogeneous Dose Retest to Identify Inhibitors of RecA-Intein Splicing Activity. [Related pubchem assays (depositor defined):AID2097, AID2223, AID489010, AID492950]. In kind it is functional.

Assay [3] is described as follows: Luminescence Cell-Based Dose Retest to Confirm Inhibitors of Cancer Stem Cells. [Related pubchem assays (depositor defined):AID2717, AID2721]. Format: functional. As to conditions: Homo sapiens.
Assay [4] has as its target T3, Rac GTPase-activating protein 1 (Homo sapiens, UniProt Q9H0H5).
T3 sequence (Q9H0H5 whole entry): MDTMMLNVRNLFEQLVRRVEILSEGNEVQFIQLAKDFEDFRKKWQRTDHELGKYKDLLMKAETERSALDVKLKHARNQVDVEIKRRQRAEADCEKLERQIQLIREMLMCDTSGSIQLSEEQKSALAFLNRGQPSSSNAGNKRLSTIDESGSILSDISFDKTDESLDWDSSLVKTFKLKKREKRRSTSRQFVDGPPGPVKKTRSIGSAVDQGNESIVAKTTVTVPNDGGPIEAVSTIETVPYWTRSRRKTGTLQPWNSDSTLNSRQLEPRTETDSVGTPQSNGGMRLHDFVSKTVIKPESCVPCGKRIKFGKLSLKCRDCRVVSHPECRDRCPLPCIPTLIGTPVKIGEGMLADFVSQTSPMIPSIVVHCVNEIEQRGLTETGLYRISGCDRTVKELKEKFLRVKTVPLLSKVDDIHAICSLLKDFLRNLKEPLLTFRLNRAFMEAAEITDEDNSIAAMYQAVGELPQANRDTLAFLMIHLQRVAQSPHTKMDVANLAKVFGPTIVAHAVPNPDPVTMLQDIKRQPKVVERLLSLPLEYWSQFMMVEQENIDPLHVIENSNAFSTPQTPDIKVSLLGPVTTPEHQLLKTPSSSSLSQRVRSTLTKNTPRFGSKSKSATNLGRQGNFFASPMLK
In words: MgcRacGAP GTPase-activating activity inhibitors, confirmation, biochemical, ADP Hunter fluorescence, primary and confirmatory (AID 624330). In kind it is functional.

In assay [5] the target is Cytochrome P450 2D6 (Homo sapiens, UniProt P10635).
Sequence of Cytochrome P450 2D6 (P10635 whole entry): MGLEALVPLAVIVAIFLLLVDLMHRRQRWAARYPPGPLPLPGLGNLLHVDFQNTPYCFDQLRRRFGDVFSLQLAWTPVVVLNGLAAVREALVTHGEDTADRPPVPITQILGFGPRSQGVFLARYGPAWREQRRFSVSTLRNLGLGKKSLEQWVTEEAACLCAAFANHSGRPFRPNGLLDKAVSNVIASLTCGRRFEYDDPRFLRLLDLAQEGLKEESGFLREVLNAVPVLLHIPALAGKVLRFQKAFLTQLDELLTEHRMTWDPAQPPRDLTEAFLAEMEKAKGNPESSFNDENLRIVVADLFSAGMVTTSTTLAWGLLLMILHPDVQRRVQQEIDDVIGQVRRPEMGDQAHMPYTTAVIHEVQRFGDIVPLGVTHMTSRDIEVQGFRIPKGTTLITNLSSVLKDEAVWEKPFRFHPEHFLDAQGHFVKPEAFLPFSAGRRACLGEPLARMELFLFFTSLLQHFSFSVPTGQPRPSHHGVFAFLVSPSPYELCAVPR
In assay [6] the target is Cytochrome P450 2C19 (Homo sapiens, UniProt P33261). In words: Cytochrome panel assay with activity outcomes. Panel member name: p450-cyp2c19 Compounds with AC50 equal or less than 10 uM are considered active. In kind it is functional. The following applies: read-out: AC50.
Sequence of Cytochrome P450 2C19 (P33261 whole entry): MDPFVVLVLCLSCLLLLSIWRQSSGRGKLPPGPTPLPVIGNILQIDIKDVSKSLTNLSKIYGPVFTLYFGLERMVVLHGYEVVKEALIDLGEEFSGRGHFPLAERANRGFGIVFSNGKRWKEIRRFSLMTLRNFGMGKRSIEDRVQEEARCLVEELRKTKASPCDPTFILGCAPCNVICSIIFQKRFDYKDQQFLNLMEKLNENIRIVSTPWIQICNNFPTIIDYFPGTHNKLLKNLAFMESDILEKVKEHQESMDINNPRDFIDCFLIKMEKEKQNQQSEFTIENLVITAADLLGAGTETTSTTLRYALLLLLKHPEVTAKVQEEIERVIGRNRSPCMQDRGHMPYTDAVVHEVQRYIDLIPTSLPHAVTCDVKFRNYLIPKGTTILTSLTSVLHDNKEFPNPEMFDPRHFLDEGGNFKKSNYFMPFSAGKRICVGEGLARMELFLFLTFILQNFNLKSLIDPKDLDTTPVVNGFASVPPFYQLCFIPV
In assay [7] the target is Cytochrome P450 2C9 (Homo sapiens, UniProt P11712).
Sequence of Cytochrome P450 2C9 (P11712 whole entry): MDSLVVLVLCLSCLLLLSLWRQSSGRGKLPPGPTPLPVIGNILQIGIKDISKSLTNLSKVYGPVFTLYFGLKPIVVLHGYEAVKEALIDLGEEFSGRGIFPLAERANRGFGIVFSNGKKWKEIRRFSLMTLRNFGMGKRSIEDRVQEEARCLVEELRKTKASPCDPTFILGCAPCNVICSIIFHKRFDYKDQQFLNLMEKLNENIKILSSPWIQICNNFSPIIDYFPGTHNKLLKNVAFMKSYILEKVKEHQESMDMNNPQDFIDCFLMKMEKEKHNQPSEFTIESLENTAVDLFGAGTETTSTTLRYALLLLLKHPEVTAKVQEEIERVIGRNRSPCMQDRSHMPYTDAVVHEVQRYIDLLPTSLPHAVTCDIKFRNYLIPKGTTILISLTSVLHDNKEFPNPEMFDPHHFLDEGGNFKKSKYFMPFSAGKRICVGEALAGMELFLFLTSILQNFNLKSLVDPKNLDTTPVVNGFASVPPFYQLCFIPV
In assay [8] the target is T4, Cytochrome P450 1A2 (Homo sapiens, UniProt P05177).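 Also: PubChem cytochrome P450 panel assay, CYP1A2 panel member.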
T4 sequence (P05177 whole entry): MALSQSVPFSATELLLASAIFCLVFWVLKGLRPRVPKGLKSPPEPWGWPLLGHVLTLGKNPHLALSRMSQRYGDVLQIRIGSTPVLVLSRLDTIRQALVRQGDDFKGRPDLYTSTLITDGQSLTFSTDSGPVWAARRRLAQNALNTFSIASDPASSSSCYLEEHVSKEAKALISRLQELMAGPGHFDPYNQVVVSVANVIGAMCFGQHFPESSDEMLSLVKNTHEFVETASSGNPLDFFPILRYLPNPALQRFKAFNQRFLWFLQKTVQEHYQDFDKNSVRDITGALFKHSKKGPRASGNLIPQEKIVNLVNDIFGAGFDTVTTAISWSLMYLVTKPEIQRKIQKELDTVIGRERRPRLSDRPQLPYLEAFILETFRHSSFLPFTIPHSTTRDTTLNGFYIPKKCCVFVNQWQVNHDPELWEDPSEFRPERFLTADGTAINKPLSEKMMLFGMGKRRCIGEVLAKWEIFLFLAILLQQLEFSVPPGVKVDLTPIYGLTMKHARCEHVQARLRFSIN

Assay [9] has as its target T5, RNA-binding protein pos-1 (Caenorhabditis elegans, UniProt G5EF15).
T5 sequence (G5EF15 whole entry): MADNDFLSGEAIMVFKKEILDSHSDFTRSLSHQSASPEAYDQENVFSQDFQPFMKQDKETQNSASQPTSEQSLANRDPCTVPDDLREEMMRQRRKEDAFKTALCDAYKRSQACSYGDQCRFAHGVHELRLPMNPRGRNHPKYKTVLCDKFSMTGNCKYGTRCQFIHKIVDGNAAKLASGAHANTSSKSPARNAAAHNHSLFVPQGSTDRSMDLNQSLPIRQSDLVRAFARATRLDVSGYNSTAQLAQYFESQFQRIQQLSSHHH
In words: inhibitors of POS-1/mex-3 RNA binding, dose response, biochemical, fluorescence polarization (AID 1964).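 Also: purified POS-1 fused to maltose binding protein made in E. coli; potency of compounds blocking POS-1 binding to fluorescent RNA.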

Assay [10] deals with Cytochrome P450 3A4 (Homo sapiens, UniProt P08684).
Sequence of Cytochrome P450 3A4 (P08684 whole entry): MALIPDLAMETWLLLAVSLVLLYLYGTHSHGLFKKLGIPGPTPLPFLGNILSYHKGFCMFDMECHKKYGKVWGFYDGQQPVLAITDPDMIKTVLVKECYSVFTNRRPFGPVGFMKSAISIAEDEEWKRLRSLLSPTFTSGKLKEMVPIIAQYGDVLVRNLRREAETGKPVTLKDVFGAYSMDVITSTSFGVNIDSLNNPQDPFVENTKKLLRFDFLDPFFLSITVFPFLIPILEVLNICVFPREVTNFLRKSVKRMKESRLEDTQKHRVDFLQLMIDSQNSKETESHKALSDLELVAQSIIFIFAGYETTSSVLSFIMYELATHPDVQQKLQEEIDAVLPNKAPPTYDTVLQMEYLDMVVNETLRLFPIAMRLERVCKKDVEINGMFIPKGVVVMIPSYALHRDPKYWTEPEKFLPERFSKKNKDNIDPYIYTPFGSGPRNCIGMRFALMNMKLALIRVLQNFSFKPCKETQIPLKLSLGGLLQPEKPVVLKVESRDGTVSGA
Assay [11] addresses Luciferin 4-monooxygenase (Photinus pyralis, UniProt P08659). Nature of the assay: firefly luciferase enzyme inhibitors, dose response, biochemical, luminescence (AID 1891).
The nature of assay [12]: Luminescence Cell-Based Dose Confirmation HTS to Identify Inhibitors of Platelet Dense Granule Release. [Related pubchem assays: 1663 (Primary HTS), 1678 (Summary of Project)]. Format: functional.

Sequence of Luciferin 4-monooxygenase (P08659 whole entry): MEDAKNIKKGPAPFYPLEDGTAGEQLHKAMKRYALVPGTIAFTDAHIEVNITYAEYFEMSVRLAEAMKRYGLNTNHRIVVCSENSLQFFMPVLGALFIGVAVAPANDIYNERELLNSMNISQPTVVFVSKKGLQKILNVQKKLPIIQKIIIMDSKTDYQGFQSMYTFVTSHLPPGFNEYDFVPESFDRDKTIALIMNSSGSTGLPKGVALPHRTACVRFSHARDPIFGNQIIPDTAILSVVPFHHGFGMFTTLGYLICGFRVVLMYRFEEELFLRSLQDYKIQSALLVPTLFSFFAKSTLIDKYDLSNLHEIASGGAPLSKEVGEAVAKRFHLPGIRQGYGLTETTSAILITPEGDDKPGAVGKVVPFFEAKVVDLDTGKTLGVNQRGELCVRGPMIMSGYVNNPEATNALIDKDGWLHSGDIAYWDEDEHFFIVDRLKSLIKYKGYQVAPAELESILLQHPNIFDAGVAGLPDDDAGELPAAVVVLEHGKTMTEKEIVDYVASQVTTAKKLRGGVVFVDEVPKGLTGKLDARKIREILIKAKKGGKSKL

Regarding `Cc1ccc(C2C(C#N)=C(N)Oc3[nH]nc(-c4cccs4)c32)s1` (stereo not drawn), the concentration at half-maximal activity (AC50) in assay [1] is 1.54 µM (active). Also, the EC50 in assay [2] was 1.82 µM (active). Consider `CN1CCc2c(sc(NC(=O)c3ccc(S(=O)(=O)N4CCc5ccccc54)cc3)c2C(N)=O)C1`, for which the half-maximal activity concentration (AC50) in [3] was 2.91 µM (active). Consider `N#CC1(Nc2ccc3c4c(cccc24)CC3)CCCCC1`, for which, in assay [4], the IC50 is 18.5 µM (active). Still for that read-out and setting: under `Cc1cc(NC(=O)CN2CCC(C)CC2)no1` stands 253 µM (active).

In the case of `c1cc2cc(c1)C[n+]1ccc(c3ccccc31)NCc1ccc(cc1)CNc1cc[n+](c3ccccc13)C2`, the AC50 in [5] is 39.8 µM (inconclusive). For `CC(C)=CCc1c(O)cc2c(=O)c3ccc(O)cc3oc2c1O`, the half-maximal activity concentration (AC50) in assay [3] was 5.16 µM (active).

With `COc1ccccc1CNc1ncnc2ccc(-c3c(C)noc3C)cc12`, the concentration at half-maximal activity (AC50) is 31.6 µM (inconclusive) in assay [6], 39.8 µM (inconclusive) in assay [5] and 0.794 µM (inconclusive) in [7].

Take `CCOc1cc(/C=N/NC(=O)C2CCCC2)ccc1O`: in assay [4], the IC50 was 52.1 µM (active). Take `O=C(OCc1nnc(-c2ccccc2)o1)c1ccc2c(c1)OCCO2`: the half-maximal activity concentration (AC50) in assay [5] is 28.2 µM (inconclusive). For `CN(C)C(CNS(=O)(=O)c1ccc2ccccc2c1)c1ccccc1` (stereo not drawn), in [3], the AC50 is > 195 µM (inactive). As to `COC(=O)c1cc(NS(=O)(=O)c2ccc(N3CCCCCC3)c([N+](=O)[O-])c2)cc(C(=O)OC)c1`, the AC50 in [5] is 12.6 µM (inconclusive); in assay [8], 14.1 µM (inconclusive). With `COc1ccc(Cn2nnnc2C(c2cccnc2)N2CCN(c3ccc(O)cc3)CC2)cc1` (stereo not drawn), in [4], the IC50 is 39.6 µM (active). On to `COc1ccc(C(C(=O)Nc2ccc(F)cc2)N(C(=O)Cn2nnc3ccccc32)C2CC2)cc1` (stereo not drawn), for which the AC50 in [6] is 10 µM (inconclusive); in assay [5] it was 28.2 µM (inconclusive).

As to `CC(CO)Nc1nc(SCc2ccccc2)nc2sc3c(c12)CCC3` (stereo not drawn), the AC50 in [5] is 12.6 µM (inconclusive). With `O=C1NC(=O)N(c2cccc(F)c2)C(=O)/C1=C/c1c[nH]c2ccccc12`, the half-maximal effective concentration (EC50) in assay [9] is listed as > 300 µM (not active). Turning to `COc1ccc(C(=O)/C=C/c2ccc(O)cc2)cc1`, the IC50 in assay [4] is 37 µM (active). Take `CCNc1ncc2nc(-c3cccs3)c(=O)n(C[C@H]3CCCO3)c2n1`: the AC50 was 0.2 µM (inconclusive) in assay [5] and 7.94 µM (inconclusive) in [10]. Consider `CN1CCN(/N=C/c2nc(-c3ccccc3)n3ccccc23)CC1`, for which the IC50 in assay [4] is 29.1 µM (active). `CC(C)c1cccc2nc3c(c([Si](C)(C)C)c12)Cn1c-3cccc1=O`: the AC50 in [5] and in [7] was 39.8 µM (inconclusive) each time.

Consider `O=C(Nc1cccc(O)c1)c1noc2c1CCc1ccccc1-2`, for which the values for the EC50 in assay [11] and in [12] were 1.03 µM (active) and 8.29 µM (active), respectively. On the same counts, the results for `O=C(Cn1c(O)c(N=NC(=O)c2ccncc2)c2ccccc21)Nc1ccccc1` are > 112 µM (not active) and > 112 µM (not active). Turning to `Cc1nc2ccccc2n1CC(=O)N/N=C\C=C\c1ccccc1`, the AC50 in assay [5] was 35.5 µM (inconclusive).

In the case of `CC[C@@H]1CC=C[C@H]2[C@H]1C(=O)N(Cc1ccccc1)[C@H]2c1ccoc1`, the AC50 in assay [3] was 5.39 µM (active). Consider `COc1ccc(C(=O)NCC(=O)OCc2cccc(Br)c2)cc1`, for which the AC50 in assay [5] is 15.8 µM (inconclusive).

For `O=C(/C(=C/c1cccnc1)n1ccnc1)c1ccc(Cl)cc1Cl`, the IC50 in assay [4] was 223 µM (active). Take `N#Cc1cccc(NC(=O)N2CCC3(CC2)CCN(C(=O)c2csnn2)CC3)c1`: the AC50 in [5] was 15.8 µM (inconclusive); in assay [10], 20 µM (inconclusive). Regarding `COCC(C)NCc1ccccc1C` (stereo not drawn), in [4], the half-inhibitory concentration (IC50) is 138 µM (active). As for `Cc1nc2oc3c(NCC4CCCO4)ncnc3c2c2c1COC(C)(C)C2` (stereo not drawn), the concentration giving a half-maximal response (EC50) in assay [11] and in [12] was > 112 µM (not active) throughout. For `Cc1sc2ncnc(N(C)CCc3ccccn3)c2c1C`, the IC50 in [4] was 148 µM (active). As to `Cc1cc(-c2ccc(S(=O)(=O)N3CCN(c4ccccc4F)CC3)s2)on1`, the EC50 in assay [11] and in assay [12] was > 112 µM (not active) in each case. `O=c1cc(N2CCCCC2)c(-c2ccccc2)nn1Cc1ccccc1`: the AC50 in assay [3] is 2.06 µM (active).
